This note sets out measurements from ChEMBL document CHEMBL3638931, “Histone deacetylase inhibitors, process for preparation and uses thereof” (2014).

Structures are written as SMILES.

This assay has as its target T1, Protein deacetylase HDAC6 (Homo sapiens, UniProt Q9UBN7).
T1 sequence (Q9UBN7 whole entry): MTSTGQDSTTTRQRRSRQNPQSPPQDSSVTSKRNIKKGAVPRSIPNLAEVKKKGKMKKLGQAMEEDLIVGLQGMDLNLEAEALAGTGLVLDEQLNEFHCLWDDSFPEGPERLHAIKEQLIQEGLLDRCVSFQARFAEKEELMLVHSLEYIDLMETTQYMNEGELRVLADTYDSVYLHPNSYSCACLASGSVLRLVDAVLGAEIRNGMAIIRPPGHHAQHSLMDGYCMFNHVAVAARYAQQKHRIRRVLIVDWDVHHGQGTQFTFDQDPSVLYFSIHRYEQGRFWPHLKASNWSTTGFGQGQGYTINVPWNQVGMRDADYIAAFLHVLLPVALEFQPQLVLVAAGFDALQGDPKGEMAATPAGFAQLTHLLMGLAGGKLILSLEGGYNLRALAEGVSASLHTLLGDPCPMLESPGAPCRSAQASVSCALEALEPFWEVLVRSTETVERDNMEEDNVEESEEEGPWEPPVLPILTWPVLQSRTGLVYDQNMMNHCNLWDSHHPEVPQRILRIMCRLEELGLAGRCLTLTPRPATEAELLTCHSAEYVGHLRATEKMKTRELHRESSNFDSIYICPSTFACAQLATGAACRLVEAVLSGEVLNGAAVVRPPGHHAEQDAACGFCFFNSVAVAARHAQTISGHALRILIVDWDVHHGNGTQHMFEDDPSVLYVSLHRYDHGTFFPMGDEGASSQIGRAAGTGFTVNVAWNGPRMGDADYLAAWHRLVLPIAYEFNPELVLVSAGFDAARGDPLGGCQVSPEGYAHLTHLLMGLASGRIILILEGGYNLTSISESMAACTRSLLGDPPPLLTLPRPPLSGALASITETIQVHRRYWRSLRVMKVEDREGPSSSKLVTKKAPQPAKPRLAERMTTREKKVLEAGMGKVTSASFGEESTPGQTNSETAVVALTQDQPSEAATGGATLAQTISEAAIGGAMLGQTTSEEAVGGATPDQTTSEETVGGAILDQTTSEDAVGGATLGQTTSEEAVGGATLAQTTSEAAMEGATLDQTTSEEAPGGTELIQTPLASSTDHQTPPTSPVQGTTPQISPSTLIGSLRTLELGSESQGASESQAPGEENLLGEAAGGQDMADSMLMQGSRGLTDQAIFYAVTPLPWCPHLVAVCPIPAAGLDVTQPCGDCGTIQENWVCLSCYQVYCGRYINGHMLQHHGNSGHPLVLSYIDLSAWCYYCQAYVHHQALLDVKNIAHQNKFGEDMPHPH
Description: BIOMOL Fluorescent-Based HDAC Assay: The BIOMOL fluorescent-based HDAC activity assay has been applied in In vitro HDACi assay for determination of IC50 values of the compounds of this invention. The assay has been carried out in white 96 well formats according to the BIOMOL's method. In order to optimize the experiment conditions and optinal, the exact concentration range of the Deacetylated Standard (biomol, KI-142) that will vary depending on the flurimeter model, the gain setting and the exact excitation and emission wavelengths used. We recommend diluting some of the standard to a relatively low concentration with Assay Buffer (an appropriate series of Deacetylated Standard dilutions from 20 uM to 0.3125 uM), and Assay Buffer as a time zero to a set of wells on the microtiter plate. Experimental to samples (five dilute groups: 100 uM, 20 uM, 4 uM, 0.8 uM, 0.16 uM) should be compared to a time zero.

Usually IC50 stands for the concentration that inhibits the measured activity by half. For `CCN(CC)CCSc1ccc(/C=C/C(=O)NO)cc1NS(=O)(=O)c1ccc(C)cc1`, inhibition was half-maximal at 247 nM (IC50). That is a sub-micromolar value. Under `CCN(CC)CCSc1ccc(/C=C/C(=O)NO)cc1NC(=O)C(Cl)Cl` stands 313 nM.
